Results reported in paper PMC5337940, “Sansanmycin natural product analogues as potent and selective anti-mycobacterials that inhibit lipid I biosynthesis” (Nature Communications, 2017).
In brackets after ≈: the same amount, converted by molar mass. Read-outs that look alike come from different tables or passages of the source.

Assays:
HEK293 cells = test: Cytotoxicity counter-screen, resazurin reduction microplate assay; type: cell-based; settings: Homo sapiens, tested up to 200 μM, read-out: MIC50 (HEK293)
Mtb H37Rv = test: Resazurin reduction microplate assay, growth inhibition of Mtb H37Rv; type: cell-based, Mycobacterium tuberculosis
Mtb MurX [1] = molecular target: T1, Mtb MurX (Mycobacterium tuberculosis, UniProt P9WMW7); test: Radiochemical (TLC) MurX-MurG coupled inhibition assay in Mtb mc2 6230 membranes; type: biochemical; settings: 200 nM inhibitor, decrease in lipid II formation
T1 sequence (P9WMW7 whole entry): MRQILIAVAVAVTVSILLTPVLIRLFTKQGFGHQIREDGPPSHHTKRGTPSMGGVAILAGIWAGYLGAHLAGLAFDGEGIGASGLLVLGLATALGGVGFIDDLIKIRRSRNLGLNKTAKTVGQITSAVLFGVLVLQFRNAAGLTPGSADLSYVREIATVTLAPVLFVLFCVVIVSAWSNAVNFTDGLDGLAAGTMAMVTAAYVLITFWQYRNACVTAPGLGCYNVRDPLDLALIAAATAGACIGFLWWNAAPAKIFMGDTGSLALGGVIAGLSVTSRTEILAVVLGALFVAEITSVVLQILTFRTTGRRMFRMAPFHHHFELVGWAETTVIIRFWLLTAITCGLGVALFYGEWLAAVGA

Mtb MurX [2] = molecular target: T1, Mtb MurX; test: biochemical; settings: read-out: IC50 Mtb MurX, fluorescence assay
[3] = Mycobacterium tuberculosis, H37RV, average of two independent experiments, each in triplicate, read-out: MIC50 Mtb H37Rv
[4] = Mycobacterium tuberculosis, H37RV, read-out: MIC50 Mtb H37Rv
[5] = average of two independent experiments, each in triplicate
[6] = average of two independent experiments, each in triplicate, read-out: MIC50 Mtb H37Rv

| Molecule | CC50 (HEK293 cells) [µM] | MIC50 (Mtb H37Rv; [3]) [µM] | inhibition at 0.2 µM (Mtb MurX [1]) [%] | MIC50 (Mtb H37Rv; Mycobacterium tuberculosis, H37RV, Mtb H37Rv, read-out: MIC50 against Mtb) [µM] | MIC50 (Mtb H37Rv; [4]) [µM] | MIC50 Mtb H37Rv (Mtb H37Rv; [5]) [µM] | MIC50 (Mtb H37Rv; [6]) [µM] | IC50 (Mtb MurX [2]) [µM] |
| --- | --- | --- | --- | --- | --- | --- | --- | --- |
| CC(C)C[C@H](NC(=O)N[C@@H](Cc1c[nH]c2ccccc12)C(=O)O)C(=O)N[C@H](C(=O)NC[C@H]1C[C@@H](O)[C@H](n2ccc(=O)[nH]c2=O)O1)[C@H](C)N(C)C(=O)[C@@H](N)Cc1ccccc1 [Compound 7] | > 200 | 4.05 ± 0.63 (≈ 3.37 µg/mL) | 27 |  |  |  |  |  |
| C[C@@H]([C@H](NC(=O)[C@H](CCCCN)NC(=O)N[C@@H](Cc1c[nH]c2ccccc12)C(=O)O)C(=O)NC[C@H]1C[C@@H](O)[C@H](n2ccc(=O)[nH]c2=O)O1)N(C)C(=O)CN [Compound 28] | > 200 | 0.7 ± 0.1 (≈ 0.53 µg/mL) | 47 | 0.7 (≈ 0.53 µg/mL) |  |  |  |  |
| CC(C)C[C@H](NC(=O)N[C@@H](Cc1c[nH]c2ccccc12)C(=O)O)C(=O)N[C@H](C(=O)NC[C@H]1C[C@@H](O)[C@H](n2ccc(=O)[nH]c2=O)O1)[C@H](C)N(C)C(=O)[C@@H](N)CC(=O)O [Compound 14] | > 200 |  | 8 |  | 9.8 ± 1.1 (≈ 7.84 µg/mL) |  |  |  |
| CC(C)C[C@H](NC(=O)N[C@@H](Cc1c[nH]c2ccccc12)C(=O)O)C(=O)N[C@H](C(=O)NC[C@H]1C[C@@H](O)[C@H](n2ccc(=O)[nH]c2=O)O1)[C@H](C)N(C)C(=O)[C@@H](N)[C@@H](C)O [Compound 17] | > 200 | 1.35 ± 0.07 (≈ 1.06 µg/mL) | 20 |  |  | 0.95 to 1.35 |  |  |
| CC(C)C[C@H](NC(=O)N[C@@H](Cc1c[nH]c2ccccc12)C(=O)O)C(=O)N[C@H](C(=O)NC[C@H]1C[C@@H](O)[C@H](n2ccc(=O)[nH]c2=O)O1)[C@H](C)N(C)C(=O)[C@H](C)N [Compound 13] | > 200 | 0.6 ± 0.14 (≈ 0.453 µg/mL) | 50 |  |  |  | 0.60 (≈ 0.453 µg/mL) |  |
| CC(C)C[C@H](NC(=O)N[C@@H](Cc1c[nH]c2ccccc12)C(=O)O)C(=O)N[C@H](C(=O)NC[C@H]1C[C@@H](O)[C@H](n2ccc(=O)[nH]c2=O)O1)[C@H](C)N(C)C(=O)[C@@H](N)Cc1ccc2ccccc2c1 [Compound 9] | > 200 | 3 ± 0.7 (≈ 2.65 µg/mL) | 27 |  |  |  |  |  |
| C[C@@H]([C@H](NC(=O)[C@@H](NC(=O)N[C@@H](Cc1c[nH]c2ccccc12)C(=O)O)C1CCCCC1)C(=O)NC[C@H]1C[C@@H](O)[C@H](n2ccc(=O)[nH]c2=O)O1)N(C)C(=O)CN [Compound 24] | > 200 | 0.51 ± 0.1 (≈ 0.392 µg/mL) | 41 |  |  |  |  |  |
| C[C@@H]([C@H](NC(=O)[C@H](Cc1ccccc1)NC(=O)N[C@@H](Cc1c[nH]c2ccccc12)C(=O)O)C(=O)NC[C@H]1C[C@@H](O)[C@H](n2ccc(=O)[nH]c2=O)O1)N(C)C(=O)CN [Compound 29] | > 200 | 0.26 ± 0.15 (≈ 0.202 µg/mL) | 60 |  |  |  |  |  |
| CC(C)C[C@H](NC(=O)N[C@@H](Cc1c[nH]c2ccccc12)C(=O)O)C(=O)N[C@H](C(=O)NC[C@H]1C[C@@H](O)[C@H](n2ccc(=O)[nH]c2=O)O1)[C@H](C)N(C)C(=O)CN [Compound 12] | > 200 | 0.63 ± 0.17 (≈ 0.467 µg/mL) | 9 |  |  |  | 0.63 (≈ 0.467 µg/mL) |  |
| C[C@@H]([C@H](NC(=O)[C@H](Cc1c[nH]c2ccccc12)NC(=O)N[C@@H](Cc1c[nH]c2ccccc12)C(=O)O)C(=O)NC[C@H]1C[C@@H](O)[C@H](n2ccc(=O)[nH]c2=O)O1)N(C)C(=O)CN [Compound 33] | > 200 | 0.44 to 0.98 (≈ 0.359 to 0.799 µg/mL) | 52 |  |  | 0.44 ± 0.06 (≈ 0.359 µg/mL) |  |  |
| tunicamycin [reference compound] |  |  |  |  |  |  |  | 0.189 |
| C[C@@H]([C@H](NC(=O)[C@H](Cc1ccc(C(F)(F)F)cc1)NC(=O)N[C@@H](Cc1c[nH]c2ccccc12)C(=O)O)C(=O)NC[C@H]1C[C@@H](O)[C@H](n2ccc(=O)[nH]c2=O)O1)N(C)C(=O)CN [Compound 30] | > 200 | 0.2 ± 0.06 (≈ 0.169 µg/mL) | 100 |  |  |  |  |  |
| CC(C)C[C@H](NC(=O)N[C@@H](Cc1c[nH]c2ccccc12)C(=O)O)C(=O)N[C@H](C(=O)NC[C@H]1C[C@@H](O)[C@H](n2ccc(=O)[nH]c2=O)O1)[C@H](C)N(C)C(=O)[C@@H](N)C1CCCCC1 [Compound 11] | > 200 | 1.1 ± 0.84 (≈ 0.906 µg/mL) | 14 |  |  | 0.95 to 1.35 |  |  |
| C[C@@H]([C@H](NC(=O)[C@H](Cc1ccc(O)cc1)NC(=O)N[C@@H](Cc1c[nH]c2ccccc12)C(=O)O)C(=O)NC[C@H]1C[C@@H](O)[C@H](n2ccc(=O)[nH]c2=O)O1)N(C)C(=O)CN [Compound 31] | > 200 | 0.44 to 0.98 (≈ 0.348 to 0.776 µg/mL) | 40 |  |  | 0.52 ± 0.02 (≈ 0.412 µg/mL) |  |  |
| CC(C)C[C@H](NC(=O)N[C@@H](Cc1c[nH]c2ccccc12)C(=O)O)C(=O)N[C@H](C(=O)NC[C@H]1C[C@@H](O)[C@H](n2ccc(=O)[nH]c2=O)O1)[C@H](C)N(C)C(=O)[C@@H](N)CC1CCCCC1 [Compound 10] | > 200 | 1 ± 0.3 (≈ 0.838 µg/mL) | 41 |  |  | 0.95 to 1.35 |  |  |
| C[C@@H]([C@H](NC(=O)[C@H](CC(=O)O)NC(=O)N[C@@H](Cc1c[nH]c2ccccc12)C(=O)O)C(=O)NC[C@H]1C[C@@H](O)[C@H](n2ccc(=O)[nH]c2=O)O1)N(C)C(=O)CN [Compound 27] | > 200 |  | 34 |  | > 6.25 |  |  |  |
| CC(C)[C@H](NC(=O)N[C@@H](Cc1c[nH]c2ccccc12)C(=O)O)C(=O)N[C@H](C(=O)NC[C@H]1C[C@@H](O)[C@H](n2ccc(=O)[nH]c2=O)O1)[C@H](C)N(C)C(=O)CN [Compound 22] | > 200 | 0.88 ± 0.12 (≈ 0.64 µg/mL) | 26 |  |  |  |  |  |
| CC(C)C[C@H](NC(=O)N[C@@H](Cc1c[nH]c2ccccc12)C(=O)O)C(=O)N[C@H](C(=O)NC[C@H]1C[C@@H](O)[C@H](n2ccc(=O)[nH]c2=O)O1)[C@H](C)N(C)C(=O)[C@@H](N)Cc1cccc(O)c1 [Compound 5, Dihydrosansanmycin B] | > 200 | 0.3 ± 0.03 (≈ 0.254 µg/mL) | > 51 |  |  | 0.30 ± 0.07 (≈ 0.254 µg/mL) |  |  |
